From US5037841A, “1,3-disubstituted pyrrolidines” (Bayer Aktiengesellschaft, priority 1988, dated 1991)
Structures can show the parent of a compound that is named as a salt.

Molecular target: T1, 5-HT1 receptor (Bos taurus, UniProt F6Q2H9)
T1 construct: calf hippocampus membrane preparations; from tissue; host or cells: calf hippocampus membranes
T1 sequence (F6Q2H9 1-422): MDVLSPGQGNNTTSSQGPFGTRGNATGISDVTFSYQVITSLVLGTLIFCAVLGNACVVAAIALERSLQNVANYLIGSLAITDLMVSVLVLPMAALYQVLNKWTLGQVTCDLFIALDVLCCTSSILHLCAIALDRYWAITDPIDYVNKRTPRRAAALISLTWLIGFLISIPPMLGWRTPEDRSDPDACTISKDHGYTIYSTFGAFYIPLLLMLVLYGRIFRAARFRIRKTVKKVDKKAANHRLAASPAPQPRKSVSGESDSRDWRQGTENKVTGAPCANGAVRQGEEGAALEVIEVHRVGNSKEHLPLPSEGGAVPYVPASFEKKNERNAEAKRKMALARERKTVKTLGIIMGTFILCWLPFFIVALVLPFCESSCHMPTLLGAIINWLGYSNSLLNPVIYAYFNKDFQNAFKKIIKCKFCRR
Experiment: Affinity for the 5-HT1 receptor: receptor binding studies using calf hippocampus membrane preparations, 3H-serotonin as radioligand
Details: Comparison compound of DE-A 1,964,511; test conditions not restated; read-out: Ki value (comparison compound)
Description: Affinity for the 5-HT1 receptor
The high affinity of the compound according to the invention for 5-hydroxytryptamine receptors of the subtype […] is represented by way of example in Table 4. The values indicated are data which have been determined from receptor binding studies using calf hippocampus membrane preparations. For this purpose, ^3 H-serotonin was used as a radioactively labelled ligand.

| Ki [nM] | Structure (SMILES) |
| --- | --- |
| 1000 | COc1ccccc1OC1CCN(C(C)C)C1 (stereo not shown) [Comparison, reference compound] |

Same assay, conditions: calf hippocampus membranes; 3H-serotonin radioligand; read-out: Ki

| Ki [nM] | Structure (SMILES) |
| --- | --- |
| 1.3 | COc1ccccc1OC1CCN(CCCCN2C(=O)c3ccccc3S2(=O)=O)C1 (stereo not shown) [Example 8, 3-(2-methoxyphenoxy)-1-[4-(1,1-dioxido-3-oxo-2,3-dihydrobenzisothiazol-2-yl)butyl]-pyrrolidine] |
| 6 | COc1cccc(OC2CCN(CCCCN3C(=O)c4ccccc4S3(=O)=O)C2)c1 (stereo not shown) [Example 10, 3-(3-methoxyphenoxy)-1-[4-(1,1-dioxido-3-oxo-2,3-dihydrobenzisothiazol-2-yl)butyl]-pyrrolidine] |
| 7 | NC(=O)c1ccccc1OC1CCN(CCCCN2C(=O)c3ccccc3S2(=O)=O)C1 (stereo not shown) [Example 19, 3-(2-carbamoylphenoxy)-1-[4-(1,1-dioxido-3-oxo-2,3-dihydrobenzisothiazol-2-yl)butyl]-pyrrolidine] |
| 0.3 | O=C1c2ccccc2S(=O)(=O)N1CCCCN1CCC(Oc2cccc3ccccc23)C1 (stereo not shown) [Example 23, 3-(1-naphthyloxy)-1-[4-(1,1-dioxido-3-oxo-2,3-dihydrobenzisothiazol-2-yl)butyl]-pyrrolidine] |

Further lines, the molecule ahead of its results:

| Structure (SMILES) | Ki [nM] |
| --- | --- |
| N#Cc1ccccc1OC1CCN(CCCCN2C(=O)c3ccccc3S2(=O)=O)C1 (stereo not shown) [Example 1, 3-(2-Cyanophenoxy)-1-[4-(1,1-dioxido-3-oxo-2,3-dihydrobenzisothiazol-2-yl)butyl]-pyrrolidine oxalate] | 2 |
| O=C1c2ccccc2S(=O)(=O)N1CCCCN1CCC(Oc2ccccc2)C1 (stereo not shown) [Example 6] | 9 |
